Columns and labels:
Format in all cases: biochemical
[1] = system: human Janus kinase 3 (JAK3), recombinant catalytic domain; test: LanthaScreen TR-FRET enzymatic assay, JAK3; settings: ratio of IC50 against JAK3 over IC50 against JAK1
Method: (§1) The in vitro inhibition of recombinant human JAKs was determined as follow.
(§2) Compounds were tested in LANTHASCREEN™ time-resolved fluorescence energy transfer (TR-FRET) enzymatic assays from Invitrogen. The human Janus kinase 1 (JAK1) used in the assay is the recombinant JAK1 catalytic domain (amino acids 866-1154) expressed and purified from insect cells (Invitrogen, Cat. No. PV4774). The human Janus kinase 2 (JAK2) used in the assay is the recombinant JAK2 catalytic domain (amino acids 808-1132) expressed and purified from insect cells (Invitrogen, Cat. No. PV4210). The human Janus kinase 3 (JAK3) used in the assay is the recombinant JAK3 catalytic domain (amino acids 781-1124) expressed and purified from insect cells (Invitrogen, Cat. No. PV3855). The human tyrosine kinase 2 (TYK2) used in the assay is the recombinant TYK2 catalytic domain (amino acids 833-1187) expressed and purified from insect cells (Invitrogen, Cat. No. PV4790). The substrate is a recombinant STAT1 expressed as a fusion with GFP (Green Fluorescent Protein) to act as a physiological substrate (Invitrogen, Cat. No. PV5211).
(§3) Test compounds were prepared and diluted in DMSO in 3-fold serial dilutions for 10 doses to 100× of the final testing concentrations. The compounds were then further diluted to 4× by the kinase reaction buffer (Invitrogen, Cat. No. PV3189). The enzymatic reaction for compound testing was performed in a white 384-well polypropylene plate (Packard, Cat. No. 6005214) with a total reaction volume of 10 μL containing 440 ng/mL JAK1, 11 ng/mL JAK2, 400 ng/mL JAK3, or 200 ng/mL TYK2, 100 nM substrate, and 1 mM ATP. The assay started with loading 2.5 μL of JAK1, JAK2, JAK3, or TYK2 diluted in the kinase reaction buffer to wells, followed by addition of an equal volume of 4× compounds for 15-min incubation at room temperature for pre-treatment. The enzymatic reaction was initiated by addition of 5 μL of a mixture of the substrate and ATP prepared in the kinase reaction buffer. After one hour reaction, 10 μL mixture of EDTA (final 10 mM) and terbium-labeled anti-pSTAT1 (pTyr701) antibody (final 2 nM) (Invitrogen, Cat. No. PV4844) prepared in TR-FRET antibody dilution buffer (Invitrogen, Cat. No. PV3574) was added to stop the enzymatic reaction and produce TR-FRET signals. After 30 minutes of incubation at room temperature, the plate was read in Tecan Infinite F200 Pro with the following settings: Excitation 340 nm (30)/Emission1 495 nm (10)/Emission2 520 nm (25). The TR-FRET values were dimensionless numbers that were calculated as the ratio of the acceptor ([…]) signal to the donor (Terbium) signal. Percent of inhibition was calculated as (100%−percentage of compound-treated/DMSO vehicle-treated). The dose-response curves were generated and the IC50s were calculated by nonlinear sigmoid curve fitting using GraphPad Prism.
(§4) In Table 1, A represents a value no greater than 500 nM, B represents a value greater than 500 nM but no greater than 1 μM, C represents a value greater than 1 μM but no greater than 5 μM, and D represents a value greater than 5 μM. In Table 2, A′ represents a ratio of greater than 8, B′ represents a ratio of no greater than 8 but no less than 4, C′ represents a ratio of no greater than 4 but no less than 2, and D′ represents a ratio of no greater than 2. The selectivity is expressed as a ratio of the IC50 values of a compound against two kinases to be compared.

[2] = target: human Janus kinase 3 (JAK3), recombinant catalytic domain (Homo sapiens (Human), UniProt P52333); test: LanthaScreen TR-FRET enzymatic assay, JAK3; settings: TR-FRET, 1 mM ATP, GFP-STAT1 substrate; read-out: Inhibitory Activity IC50 JAK3
human Janus kinase 3 (JAK3), recombinant catalytic domain (Homo sapiens (Human), UniProt P52333), sequence (P52333 781-1124): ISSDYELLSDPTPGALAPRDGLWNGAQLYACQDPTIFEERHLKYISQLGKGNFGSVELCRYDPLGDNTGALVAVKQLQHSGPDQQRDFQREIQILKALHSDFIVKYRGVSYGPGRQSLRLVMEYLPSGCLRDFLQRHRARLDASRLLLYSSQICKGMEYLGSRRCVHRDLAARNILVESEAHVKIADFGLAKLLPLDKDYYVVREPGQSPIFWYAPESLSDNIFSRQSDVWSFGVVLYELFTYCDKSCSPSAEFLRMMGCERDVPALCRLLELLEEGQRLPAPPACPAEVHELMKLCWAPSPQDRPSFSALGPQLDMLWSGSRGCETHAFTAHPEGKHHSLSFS
Method: as §1, §2, §3, §4

[3] = target: human Janus kinase 2 (JAK2), recombinant catalytic domain (Homo sapiens (Human), UniProt O60674); test: LanthaScreen TR-FRET enzymatic assay, JAK2; settings: for IC50: TR-FRET, 1 mM ATP, GFP-STAT1 substrate, read-out: Inhibitory Activity IC50 JAK2; for Selectivity JAK2/JAK1: ratio of IC50 against JAK2 over IC50 against JAK1
human Janus kinase 2 (JAK2), recombinant catalytic domain, sequence (O60674 808-1132): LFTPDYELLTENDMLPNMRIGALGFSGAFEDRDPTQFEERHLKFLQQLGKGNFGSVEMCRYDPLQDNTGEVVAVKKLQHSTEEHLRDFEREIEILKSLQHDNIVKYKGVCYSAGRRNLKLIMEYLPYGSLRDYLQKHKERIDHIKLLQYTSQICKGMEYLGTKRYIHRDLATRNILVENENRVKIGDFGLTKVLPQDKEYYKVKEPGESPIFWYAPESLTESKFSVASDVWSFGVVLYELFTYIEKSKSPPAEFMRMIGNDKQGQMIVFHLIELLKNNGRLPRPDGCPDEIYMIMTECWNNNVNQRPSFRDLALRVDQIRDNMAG
Method: as §1, §2, §3, §4

[4] = target: human Janus kinase 1 (JAK1), recombinant catalytic domain (Homo sapiens (Human), UniProt P23458); test: LanthaScreen TR-FRET enzymatic assay, JAK1; settings: 1 mM ATP, GFP-STAT1 substrate, read-out: Inhibitory Activity IC50 JAK1
human Janus kinase 1 (JAK1), recombinant catalytic domain, sequence (P23458 866-1154): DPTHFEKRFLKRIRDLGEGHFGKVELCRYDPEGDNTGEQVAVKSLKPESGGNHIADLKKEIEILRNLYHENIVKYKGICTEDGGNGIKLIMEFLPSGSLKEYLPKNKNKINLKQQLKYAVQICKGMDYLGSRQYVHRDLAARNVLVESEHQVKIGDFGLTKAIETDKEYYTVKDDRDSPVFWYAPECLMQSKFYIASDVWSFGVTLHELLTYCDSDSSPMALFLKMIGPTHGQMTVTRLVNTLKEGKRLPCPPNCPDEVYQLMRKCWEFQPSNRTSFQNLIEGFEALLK
Method: as §1, §2, §3, §4

[5] = target: human tyrosine kinase 2 (TYK2), recombinant catalytic domain (Homo sapiens (Human), UniProt P29597); test: LanthaScreen TR-FRET enzymatic assay, TYK2; settings: TR-FRET, 1 mM ATP, GFP-STAT1 substrate; read-out: Inhibitory Activity IC50 TYK2
human tyrosine kinase 2 (TYK2), recombinant catalytic domain (Homo sapiens (Human), UniProt P29597), sequence (P29597 833-1187): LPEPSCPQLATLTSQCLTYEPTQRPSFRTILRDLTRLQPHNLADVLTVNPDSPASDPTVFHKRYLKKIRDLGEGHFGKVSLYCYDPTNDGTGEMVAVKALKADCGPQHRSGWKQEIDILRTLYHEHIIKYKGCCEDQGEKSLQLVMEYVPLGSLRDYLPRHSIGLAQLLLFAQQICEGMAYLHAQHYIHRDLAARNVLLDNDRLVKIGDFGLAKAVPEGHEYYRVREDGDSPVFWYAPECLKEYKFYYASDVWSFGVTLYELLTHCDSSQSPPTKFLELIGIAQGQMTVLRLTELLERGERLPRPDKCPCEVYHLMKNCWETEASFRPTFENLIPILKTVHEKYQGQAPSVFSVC
Method: as §1, §2, §3, §4

[6] = system: human tyrosine kinase 2 (TYK2), recombinant catalytic domain; test: LanthaScreen TR-FRET enzymatic assay, TYK2; settings: ratio of IC50 against TYK2 over IC50 against JAK1
Method: as §1, §2, §3, §4

SMILES | Selectivity JAK3/JAK1 [1] | IC50 [2] [µM] | IC50 [3] [µM] | Selectivity JAK2/JAK1 [3] | IC50 [4] [nM] | IC50 [5] [µM] | Selectivity TYK2/JAK1 [6]
Cc1cc(-c2ccc(CN3CCS(=O)(=O)CC3)cc2)n2cc(NC(=O)C3CC3)nc2c1 [Compound 33] | A′ (A′ represents a ratio of greater than 8) | > 5 | > 5 | A′ (A′ represents a ratio of greater than 8) | > 5000 | > 5 | A′ (A′ represents a ratio of greater than 8)
N#CCc1ccc(-c2cccc3nc(N)cn23)c(F)c1 [Compound 21] | A′ (A′ represents a ratio of greater than 8) | > 5 | > 5 | A′ (A′ represents a ratio of greater than 8) | > 5000 | > 5 | C′ (C′ represents a ratio of no greater than 4 but no less than 2)
CC1(C)CN(Cc2ccc(-c3cccc4nc(NC(=O)C5CC5)cn34)cc2)C1 [Compound 25] | A′ (A′ represents a ratio of greater than 8) | > 5 | > 5 | A′ (A′ represents a ratio of greater than 8) | > 5000 | > 5 | A′ (A′ represents a ratio of greater than 8)
O=C(Nc1cn2c(-c3ccc(CN4CCOCC4)cc3)cccc2n1)C1CC1 [Compound 4] | A′ (A′ represents a ratio of greater than 8) | > 5 | > 5 | A′ (A′ represents a ratio of greater than 8) | 500 to 1000 | > 5 | A′ (A′ represents a ratio of greater than 8)
N#CCc1ccc(-c2cccc3nc(NC(=O)C4CC4)cn23)c(F)c1 [Compound 16] | A′ (A′ represents a ratio of greater than 8) | > 5 | > 5 | A′ (A′ represents a ratio of greater than 8) | ≤ 500 | > 5 | A′ (A′ represents a ratio of greater than 8)
N#CC1(c2ccc(-c3cccc4nc(NC(=O)C5CC5)cn34)cc2)CC1 [Compound 22] | – | > 5 | – | A′ (A′ represents a ratio of greater than 8) | – | – | –
Cc1ccc(-c2ccc(CN3CCS(=O)(=O)CC3)cc2)n2cc(NC(=O)C3CC3)nc12 [Compound 35] | – | > 5 | > 5 | – | > 5000 | > 5 | –
O=C(Nc1cn2c(-c3ccc(CN4CC[C@@H](O)C4)cc3)cccc2n1)C1CC1 [Compound 9] | A′ (A′ represents a ratio of greater than 8) | > 5 | > 5 | A′ (A′ represents a ratio of greater than 8) | 1000 to 5000 | > 5 | A′ (A′ represents a ratio of greater than 8)
CC1(C)CN(C(=O)c2ccc(-c3cccc4nc(NC(=O)C5CC5)cn34)c(F)c2)C1 [Compound 23] | A′ (A′ represents a ratio of greater than 8) | > 5 | > 5 | A′ (A′ represents a ratio of greater than 8) | 500 to 1000 | > 5 | A′ (A′ represents a ratio of greater than 8)
COc1ccc(-c2cccc3nc(NC(=O)C4CC4)cn23)cc1 [Compound 10] | A′ (A′ represents a ratio of greater than 8) | > 5 | > 5 | A′ (A′ represents a ratio of greater than 8) | 1000 to 5000 | > 5 | A′ (A′ represents a ratio of greater than 8)
O=C(Nc1cn2c(-c3ccc(CN4CCS(=O)(=O)CC4)cc3)c(Cl)ccc2n1)C1CC1 [Compound 34] | – | > 5 | > 5 | – | > 5000 | > 5 | –

— US10730875B2, “Substituted imidazo[1,2-A]pyridin-2-ylamine compounds, and pharmaceutical compositions and methods of use thereof” (JN Therapeutics, priority 2015, dated 2020)
